In patent US20090318396A1, “CORTICOSTEROID LINKED BETA-AGONIST COMPOUNDS FOR USE IN THERAPY” (priority 2008, published 2009):

Key:
[1] = test system: airway epithelial cells cultured at an air-liquid interface; test: Drug metabolism in airway epithelial cells cultured at an air-liquid interface; type: in vitro ADME, human
Description: Cryopreserved passage 1 cells were cultured in bronchial epithelial growth medium (Fulcher, M. L., et al., Well-differentiated human airway epithelial cell cultures. Methods Mol Med, 2005. 107: p. 183-206) on 100 mm Type I collagen-coated plastic dishes. At 70% confluence, passage 2 cells were transferred to type IV collagen-coated Millicell membranes (Millipore, Bedford, Mass.) in medium that supports growth at an air-liquid-interface (ALI) (Fulcher er al., 2005). Cells were maintained at an ALI and allowed to differentiate fully for approximately 28 days. […] Approximately 1 hour prior to the start of the experiment, the apical surfaces of the cells were washed once again with PBS and the basolateral media replaced with fresh ALI media. At time=0 hrs, the test article was diluted from a 10 mM stock solution in DMSO to a 40 μM solution in ALI media/PBS/10% EtOH/water (v/v). 50 μl of the resulting 40 μM solution was immediately added to the apical surface of the cells. 200 μl of the dosing solution was also added to 800 μl of 100% ACN and frozen immediately on dry ice. The remaining dosing solution was placed in the incubator with the cells. The dosing solution and cells were allowed to incubate for 10, 120 and 240 min at which points the apical surfaces of cells from 4 millicell cell culture inserts (n=4) were washed with 3×100 μl of PBS or 10% EtOH/water (v/v) per millicell. […]

[2] = Drug levels in plasma, BALF and lung after IT administration in the rat; details: IT
Description: Compounds of Examples 52 and 83 were formulated for intratracheal (IT) dosing in 10% EtOH, 90% Sterile Water, and dosed in male Sprague-Dawley rats at 3 mg/kg (Example 52) and 1 mg/kg (Example 83). Each dosing group consisted of 3 male, naïve purebred Sprague-Dawley rats. At dosing, the animals weighed ˜0.30 kg. The animals were fasted overnight prior to dose administration and up to 2 hr after dosing. The compounds were administered IT using a Penn Century Microsprayer (Model 1A-1B).
Blood samples were collected at 0.5, 2, and 4 hours post-dose. Each blood sample (0.5-0.6 mL per sample) was collected via the orbital sinus (following anesthesia for BAL procedure) into tubes containing EDTA anti-coagulant into containers surrounded by dry ice at 0.5, 2 and 4 hr (mean, n=6). Blood samples were stored at −20±5° C. until shipped for analysis.
The animals were anesthetized with an intramuscular (IM) injection of a ketamine/xylazine/acepromazine (80/10/2 mg/kg) cocktail at a dose volume of 1.1 mL/kg. A cannula (modified Bard® infant feeding tube) was inserted into the trachea. Warmed sterile saline was injected into the lungs. The lungs were gently massaged by palpation of the chest for approximately 45 seconds. The fluid (BALF) was recovered and placed on ice. The procedure was repeated two more times, and all three BALF samples pooled. The fluid was centrifuged under refrigerated conditions at 350 g for 10 minutes. The supernatant and cell pellet were collected and stored at approximately −70° C. until shipped for analysis.
Immediately following each BAL procedure, the lungs from each animal were removed, blotted dry, weighed, and stored frozen at −70° C. until shipped for analysis.
An LC/MS/MS method was used to measure the concentration of compound in plasma.
Add 3×w/v of 1×PBS buffer (90:10-PBS:ACN) to each lung tissue. Homogenize the sample w/Polytron (PT1200) and take 50 uL of supernatant and inject to LC/MSMS.
An aliquot of 50 μL of each plasma sample was treated with 100 mL of acetonitrile (ACN) containing internal standard. After the protein precipitation, an aliquot of 100 μL of the supernatant was transferred to a clean 96-well plate and mixed with 100 μL of water. An aliquot of 30 μL of the above solution was injected to the TSQ Ultra Quantum LC/MS/MS system.
A HyPurity C18 HPLC column (30×2.1 mm, 5μ) from ThermoHypersil (Part #: 22105-032130) was used. Mobile phase A contained 1% acetonitrile in 10 mM ammonium formate aqueous solution with 1% formic acid. Mobile phase B contained 80% acetonitrile in 10 mM ammonium formate with 1% formic acid. An Agilent 1100 series binary pump (P/N G1312A Bin Pump) was used for elution and separation. HTS Pal autosampler from LEAP Technologies, Carrboro, N.C. was used.
TSQ Quantum Ultra triple quadrupole mass spectrometer from Thermo Finnigan, San Jose, Calif. was used in selective reaction monitoring (SRM) operation mode, Tune file:

CC[N+](CC)(CC(=O)OCC(=O)[C@@]12O[C@H](C3CCCCC3)O[C@@H]1C[C@H]1[C@@H]3CCC4=CC(=O)C=C[C@]4(C)[C@H]3[C@@H](O)C[C@@]12C)Cc1cc(C(O)CNCCCCCCOCCCCc2ccccc2)ccc1OP(=O)(O)O.[Cl-] (stereo partly drawn) [Example 52, [5-[1-hydroxy-2-[6-(4-phenylbutoxy)hexylamino]ethyl]-2-phosphonooxybenzyl]-(diethyl)-[[11β,16α]-[[15,16-((R)-cyclohexylmethylene)bis(oxy)]-11-hydroxypregna-1,4-diene-3,20-dion-21-yl]carbonylmethyl]ammonium chloride]
amount of the parent compound over time ([1]; apical and cellular compartments): decreased over time
amount of salmeterol and desciclesonide over time ([1]; cellular compartment): increased in the cellular compartment
Metabolism in the lung following IT administration [2]: metabolized to Salmeterol and Desisobutyryl Ciclesonide in the lung
